The target of assay [1] is T1, Tobacco CGS (Nicotiana tabacum, UniProt Q9ZPL5).
T1 sequence (Q9ZPL5 79-540): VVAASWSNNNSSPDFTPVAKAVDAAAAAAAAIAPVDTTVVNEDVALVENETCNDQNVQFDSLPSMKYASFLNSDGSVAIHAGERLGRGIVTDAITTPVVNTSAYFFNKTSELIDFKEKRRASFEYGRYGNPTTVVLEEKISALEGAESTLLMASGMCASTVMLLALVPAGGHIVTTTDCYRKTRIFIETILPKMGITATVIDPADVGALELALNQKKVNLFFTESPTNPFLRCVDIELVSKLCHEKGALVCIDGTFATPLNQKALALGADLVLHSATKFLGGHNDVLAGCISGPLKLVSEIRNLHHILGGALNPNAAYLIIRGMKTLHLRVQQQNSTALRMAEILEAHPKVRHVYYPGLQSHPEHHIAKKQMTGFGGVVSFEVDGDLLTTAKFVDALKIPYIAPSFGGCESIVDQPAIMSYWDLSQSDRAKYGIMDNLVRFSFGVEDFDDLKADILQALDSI
Nature of the assay: TEV experiment (relative to DMSO). The class given is biochemical. The arrangement: 6xHIS (N, cleaved yes); GB1 solubility tag (N, cleaved yes); made in house; host or cells: E. coli BL-21. The protocol:
As discussed above, the first reaction in methionine biosynthesis in plants is catalyzed by the CGS enzyme. In this reaction, the formation of cystathionine is conducted by the γ-replacement of the phosphoryl substituent of O-phospho-homoserine by cysteine and consecutive release of an orthophosphate group.
Expression of recombinant CGS was done by transforming the pET-11 vector containing the DNA sequence of Tobacco CGS with a 6×HIS tag and GB1 solubility tag followed by TEV cleavage site into BL-21 cells. These cells were cultured at 37° C. and optical density (OD)=0.8 protein at 600 nm, and the expression was induced by addition of 1 mM IPTG for 16 hours at 25° C. The protein was purified to homogeneity onto nickel column and cleaved by o/n dialysis with the TEV protease. A second nickel column was used to separate the cleaved CGS from the TEV and GB1 solubility tag.
The direct activity of CGS was tested using the Malachite Green Phosphate Assay Kit (Sigma-Aldrich, cat #MAK307-1KT). It is a highly sensitive and robust experiment used to measure the release of free orthophosphate group based on quantification of the green-coloured complex formed between Malachite Green, molybdate, and free orthophosphate. The rapid colour formation from the reaction can be conveniently measured on a spectrophotometer via the absorbance at 620 nm.
The assay mixture (100 μl) contained 50 mM MOPS-NaOH (pH 7.5), 150 mM NaCl, 0.1 mM PLP and 1 μM purified CGS. The compounds of the present invention were added at a final concentration of 50 μM and reactions were initiated by adding 2 mM cysteine and 3 mM 0-phospho-L-homo-serine. After two-hour incubation at 25° C., 80 μL of each sample were transferred into a new 96 well-plate containing 20 μl of Malachite Green Reagent and incubated for additional 30 min at 25° C. Colour development was measured by a plate reader Tecan M200 (620 nm).

For assay [2], the system named is E. coli cells lacking the endogenic MetB CGS gene and transformed to express the CGS from Arabidopsis. Nature of the assay: E. coli specificity (MOA): growth of E. coli expressing Arabidopsis CGS with and without methionine. The assay is classed as cell-based. The following applies: score. As for the experimental part:
In addition to the direct binding evaluation, specific assay to test the compounds activity and specificity were also developed. In this assay, E. coli cells, lacking the endogenic MetB CGS gene and transformed to express the CGS from Arabidopsis, were used. These cells were grown on M9 minimal media with and without external methionine supplemented to the cells, in the presence of the compounds of the embodiments. These selected compounds of the embodiments, capable of inhibiting the cell growth on M9, but incapable of affecting the cell growth when supplemented with methionine, were validated as methionine-pathway specific inhibitors.
In this assay, Methionine auxotroph E. coli mutant was transformed with PQE-30 vector containing the Arabidopsis CGS gene as previously described in Yael Hacham et al., Plant Physiol., February 2002, 128(2): 454-462. In order to test the effect of the small molecule inhibitors on the CGS and methionine pathway, growth curves of the E. coli in M9 minimal media with 100 μM IPTG were measured with and without the addition of external methionine (40 mg/L) in the presence of variable compound concentrations. E. coli growth curves were measured by following the optical density at 600 nm of bacteria in 96 well-plate placed within Tecan M200 plate reader in orbital shaking mode at 37° C. The slope of each curve was estimated using the ‘finest’ function in Excel.

The subject of another assay is BY2 Tobacco cells. Nature of the assay: BY-2 viability assay (PrestoBlue). The class given is cell-based. The following applies: viability relative to DMSO-treated cells, 25 μM, 48 hours; for Tobacco cells BY-2 results/DMSO: Table 5; for Tobacco cells BY-2 (all (relative to DMSO)): Table 3. As for the experimental part: Reference is now made to FIG. 5 showing the BY-2 viability assay. In this assay, the viability of BY2 Tobacco cells was tested following treatment with the compounds of the present invention. For this purpose, cells were cultured in Murashige and Skoog basal medium (Sigma-Aldrich, Cat #M0404), supplemented with 2,4-dichloro-phenoxyacetic acid (0.2 mg/L), and sucrose (3%), and incubated in the dark, at 25° C. and then sub-cultured at a 1:15 dilution in fresh media every 7 days.
Before treatment, the cell suspension was adjusted to OD=0.4 (at 600 nm) and seeded in 6 well plates with a volume of 3 ml […]. The exemplified compounds were then added to the wells, at a final concentration of 25 μM (0.05% DMSO), and incubated for 48 hours. Cellular viability was measured using the commercially available PrestoBlue™ assay (ThermoFisher Scientific, PrestoBlue™ Cell Viability Reagent Cat #A13261). The PrestoBlue™ reagent is a cell-permeant non-fluorescent compound, which is reduced by metabolically active cells and providing a quantitative fluorescent signal. In the assay, 10 μL of the PrestoBlue™ reagent was added to 90 μL of the treated cells and fluorescence measurements were performed done with excitation/emission wavelengths of 560/590 nm in Tecan M200 plate reader.
Tables 1-3 and also the following Table 5 show the results of the BY-2 viability assay described above.

Another assay concerns Arabidopsis thaliana. Nature of the assay: Arabidopsis root length (root growth inhibition). The following applies: 50 μM compound; for Arabidopsis (relative to DMSO): root length ratio vs DMSO control, lower = shorter root; for Arabidopsis root length: ratio vs DMSO control, Table 4. The class given is in vivo. The protocol: Finally, FIGS. 7a-7h are the photos of the Arabidopsis thaliana plants and the inhibition of their roots growth by the compounds of the present invention. These experiments were conducted as follows. Seeds were washed with 70% ethanol for one minute and then with sterile water. Sterilisation was performed with 50% bleaching solution (3%) and 0.2% Triton x-100 for ten minutes followed by a five-time wash with sterile water. The seeds were placed in six well-plates with half Murashige and Skoog medium (MS; Duchefa, Haarlem, Netherlands), containing 1% sucrose (w/v), pH 5.8. The plates with Arabidopsis thaliana seeds were placed at 4° C. for two days and then transferred for seven days to growth chamber (22±2° C.) at day/light cycles of 16/8 h. The plates were placed vertically. In each plate, a control including 0.1% DMSO in the medium was added. The compounds of the present invention were tested for their herbicidal efficiency by diluting 1000 times a 50 mM stock in DMSO leading to a final concentration of 50 μM with 0.1% DMSO.
In Tables 1 and 2 above, Arabidopsis root length was measured after addition of 50-μM compound compared with the negative control (DMSO) treatment. Length values indicate the ratio between non-treated plates ([…]) and the length after the addition of 50 μM of each compound. Lower values indicate shorter root length, and consequently, larger effect.

Another assay deals with Roquette. Nature of the assay: Roquette assay spray. The assay is classed as in vivo.
The target of assay [3] is T1, Tobacco CGS. Nature of the assay: Micro Scale Thermophoresis (MST) direct binding to CGS. The arrangement: 6xHIS (N, cleaved yes); GB1 solubility tag (N, cleaved yes); made in house; host or cells: E. coli BL21. The following applies: score on scale 0-5; Table 3. The protocol: The direct binding of the compounds of the embodiments to the CGS was tested by Micro Scale Thermophoresis (MST). In the MST assay, the CGS protein was labelled with a fluorophore, the samples were heated, and changes in fluorescence were measured as a function of the ligand concentration. In the MST assay, similar to the expression and purification described above, the recombinant Tobacco CGS protein was expressed in E. coli BL21 cells and purified to homogeneity. For that particular purpose, the pET-11 vector containing the DNA sequence of Tobacco CGS with an N-terminus 6×HIS tag followed by a TEV-cleavable GB1 solubility tag was cloned and transformed into the bacteria cells. Cells were cultured to OD=0.8, and protein expression was induced by the addition of 1 mM IPTG. The cells were cultured for additional 16 hours temperature 25° C.
Following cellular lysis, the soluble fraction was passed through the nickel column and the bound HIS-tagged protein was eluted by 300 mM imidazole. […]
Thus, the MST assay was performed to measure the biding of the compounds to the CGS protein. […] The MST binding curves were then measured using the Monolith NT.115 apparatus by incubating the labelled protein with the indicated compounds in a dose-response manner.

For `O=C(O)CC1CN(S(=O)(=O)/C=C/c2ccccc2)c2ccccc21` (stereo not shown), the “TEV (relative to DMSO)” value on Tobacco CGS [1] (Table 1) is given as 0.25. In addition, the “E. coli specificity (MOA)” value in assay [2] (Table 1) is 5. In the assay on BY2 Tobacco cells (Table 1), the “Tobacco cells BY-2 (relative DMSO)” value turned out to be 21. Further, the “Arabidopsis (relative to DMSO)” value with Arabidopsis thaliana (Table 1) is recorded as 0.08. The “Roquette assay spray (twice average)” value in the assay with Roquette (Table 1) is 2.5.

Consider `O=C(O)C1Cc2ccccc2N1S(=O)(=O)c1ccc2ccccc2c1` (stereo not shown), for which the “TEV (relative to DMSO)” value on Tobacco CGS [1] (Table 2) is reported as 0.09. Besides, the “Tobacco cells BY-2 (relative DMSO)” value with BY2 Tobacco cells (Table 2) turned out to be 30. Further, in the assay with Arabidopsis thaliana (Table 2), the “Arabidopsis (relative to DMSO)” value amounted to 0.20. In addition, the “Roquette assay spray (twice average)” value with Roquette (Table 2) turned out to be 2.5.

`O=C(O)C1CN(S(=O)(=O)/C=C/c2ccc(Cl)cc2)c2ccccc21` (stereo not shown): the “TEV (relative to DMSO)” value at Tobacco CGS [1] (Table 1) is 0.39. Moreover, the “Tobacco cells BY-2 (relative DMSO)” value with BY2 Tobacco cells (Table 1) is 21. Also, in the assay with Arabidopsis thaliana (Table 1), the “Arabidopsis (relative to DMSO)” value was determined as 0.04. Also, the “Roquette assay spray (twice average)” value with Roquette (Table 1) stood at 3.0.

For the molecule `COc1cccc(S(=O)(=O)Nc2cccc(-c3cn(Cc4ccccc4)nn3)c2)c1` [IML-226], the “Tobacco cells BY-2 results/DMSO” value in the assay with BY2 Tobacco cells is 60.

Regarding `CCc1nc(-c2cccc(NS(=O)(=O)c3cccc(OC)c3)c2)no1` [IML-227], the “Tobacco cells BY-2 results/DMSO” value with BY2 Tobacco cells amounted to 33. Besides, the Arabidopsis root length in the assay on Arabidopsis thaliana is reported as 0.36.

For `O=C(O)C1Cc2ccccc2N1S(=O)(=O)C1Cc2ccccc2C1` (stereo not shown), the “TEV (relative to DMSO)” value at Tobacco CGS [1] (Table 2) was 0.13.

In the case of `COc1cccc2c1[C@@H](C(=O)O)CN2S(=O)(=O)/C=C/c1cccc(Cl)c1`, on Tobacco CGS [1] (Table 1), the “TEV (relative to DMSO)” value came out at 0.22. Moreover, the “Tobacco cells BY-2 (relative DMSO)” value with BY2 Tobacco cells (Table 1) was determined as 7. Besides, the “Arabidopsis (relative to DMSO)” value in the assay on Arabidopsis thaliana (Table 1) was 0.01.

Regarding `COc1cccc2c1CC(C(=O)O)N2S(=O)(=O)/C=C/c1ccccc1Cl` (stereo not shown), the “Tobacco cells BY-2 (relative DMSO)” value in the assay on BY2 Tobacco cells (Table 1) worked out at 17. In addition, the “Arabidopsis (relative to DMSO)” value in the assay on Arabidopsis thaliana (Table 1) came out at 0.24. Moreover, in the assay on Roquette (Table 1), the “Roquette assay spray (twice average)” value was 2.0.

With `Cc1nc(-c2ccc(C)c(S(=O)(=O)Nc3cccc(C(=O)O)c3)c2)cs1` [IML-193], in the assay on Arabidopsis thaliana, the Arabidopsis root length was determined as 0.50.

As for `O=C(O)C1Cc2ccccc2CN1S(=O)(=O)/C=C/c1ccccc1` (stereo not shown), the “E. coli specificity (MOA)” value in assay [2] (Table 1) came out at 4. Further, the “Tobacco cells BY-2 (relative DMSO)” value in the assay with BY2 Tobacco cells (Table 1) was determined as 46. Moreover, the “Arabidopsis (relative to DMSO)” value in the assay on Arabidopsis thaliana (Table 1) came out at 0.20.

Take `Cc1nc(-c2cccc(S(=O)(=O)Nc3cccc(C(=O)O)c3)c2)cs1` [IML-198]: the “TEV-relative to DMSO” value at Tobacco CGS [1] (Table 6) was 0.71. Further, in the assay on Arabidopsis thaliana, the Arabidopsis root length is on record as 0.31.

Take `O=S(=O)(Cc1ccccc1F)Nc1ccc2nncn2c1`: the “Tobacco cells BY-2 (all (relative to DMSO))” value in the assay with BY2 Tobacco cells stood at 0. Besides, the “MST Tobacco (0-5)” value at Tobacco CGS [3] came out at 5.

For `O=C(O)CC1CN(S(=O)(=O)/C=C/c2ccc(Cl)cc2)c2ccccc21` (stereo not shown), the “E. coli specificity (MOA)” value in assay [2] (Table 1) is listed as 2. The “Tobacco cells BY-2 (relative DMSO)” value with BY2 Tobacco cells (Table 1) was 12. For the same molecule, the “Arabidopsis (relative to DMSO)” value in the assay on Arabidopsis thaliana (Table 1) was 0.04. Further, the “Roquette assay spray (twice average)” value in the assay on Roquette (Table 1) is reported as 3.0.

Turning to `Cc1ccccc1CS(=O)(=O)Nc1ccc2nncn2c1`, in assay [2] (Table 3), the “E. coli specificity (MOA)” value is listed as 5. Further, in the assay on BY2 Tobacco cells, the “Tobacco cells BY-2 (all (relative to DMSO))” value was found to be 0.

The values above are taken from patent publication US11647748B2, “Sulphonamides as methionine metabolic pathway inhibitors” (MIGAL-GALILEE RESEARCH INSTITUTE LTD., priority 2018, dated 2023).
